Earlier results, collected in US6559178B1 (priority 2002, dated 2003).

System: cancer
Details: Phase II testing

CC(=O)OC[C@]12CCC(C)=C[C@H]1O[C@@H]1[C@H](O)[C@@H](OC(C)=O)[C@@]2(C)[C@]12CO2 [Anguidine]
hematologic toxicity: considerable hematologic toxicity
tumor response: low tumor response
